Source: article PMC6267619, “Isolation of Betulinic Acid, its Methyl Ester and Guaiane Sesquiterpenoids with Protein Tyrosine Phosphatase 1B Inhibitory Activity from the Roots of Saussurea lappa C.B.Clarke” (Molecules, 2008)
Values after ≈ are worked out from the molar mass of the structure shown. Values joined by “and” are separate entries in the source; they are usually repeats but may differ in a detail not shown here. Identical values can stand only once.

Target: T1, PTP1B (human, recombinant) (Homo sapiens, UniProt P18031)
T1 construct: purchased BIOMOL International LP (Plymouth Meeting, PA)
T1 sequence (P18031 1-435): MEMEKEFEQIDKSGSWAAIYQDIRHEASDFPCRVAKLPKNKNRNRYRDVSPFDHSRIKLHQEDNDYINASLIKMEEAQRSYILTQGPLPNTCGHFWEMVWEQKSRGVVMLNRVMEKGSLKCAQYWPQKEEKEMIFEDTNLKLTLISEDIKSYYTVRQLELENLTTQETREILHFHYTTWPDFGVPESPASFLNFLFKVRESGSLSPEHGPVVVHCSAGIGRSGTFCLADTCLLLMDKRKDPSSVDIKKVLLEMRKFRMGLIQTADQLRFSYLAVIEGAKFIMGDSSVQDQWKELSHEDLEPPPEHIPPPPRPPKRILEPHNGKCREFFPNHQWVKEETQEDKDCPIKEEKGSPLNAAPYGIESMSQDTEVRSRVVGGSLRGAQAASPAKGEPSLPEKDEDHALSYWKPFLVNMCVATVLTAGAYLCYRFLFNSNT
Assay: PTP1B inhibition assay with pNPP as substrate
Type: biochemical
Conditions: for inhibition at 30 µg/mL / Inhibition % of PTP1B activity: at 30 μg/mL; for IC50: read-out: IC50 (PTP1B inhibitory activity) (converted)
Method: PTP1B (human, recombinant) was purchased from BIOMOL® International LP (Plymouth Meeting, PA). The enzyme activity was measured using p-nitrophenyl phosphate (pNPP) as a substrate. To each of 96 wells in a microtiter plate (final volume: 100 μL) was added 2 mM pNPP and PTP1B (0.05-0.1 μg) in a buffer containing 50 mM citrate (pH 6.0), 0.1 M NaCl, 1 mM EDTA, and 1 mM dithiothreitol (DTT) with or without test compounds. Following incubation at 37°C for 30 min, the reaction was terminated with 10 M NaOH. The amount of produced p-nitrophenol was estimated by measuring the absorbance at 405 nm. The non-enzymatic hydrolysis of 2 mM pNPP was corrected by measuring the increase in absorbance at 405 nm obtained in the absence of PTP1B enzyme.

[1] = na = not active (less than 50% inhibition at the level of 30 μg/mL)

| Structure (SMILES) | inhibition at 30 µg/mL [%] | other results |
| --- | --- | --- |
| CCCCCCCCCCCCCCCC(=O)C1=C(O)C(CO)OC1=O (stereo not shown) [RK-682, reference compound] | – | Inhibition % of PTP1B activity: 98.5%; IC50 (PTP1B inhibitory activity) [1]: 1.2 ± 0.09 µg/mL (≈ 3.26 µM) |
| C=C1CC[C@H]2C(=C)CC[C@@H]3[C@H](OC(=O)[C@H]3C)[C@@H]12 [Compound 3, mokko lactone] | 93.1 | IC50 [1]: 6.07 µM and 6.03 µM |
| C/C1=C\[C@H]2OC(=O)[C@@H](C)[C@@H]2CC/C(C)=C/CC1 [Compound 6, 11β,13-dihydrocostunolide] | < 50 | – |
| CCCCCCCCCCCCCCCCCC(=O)O[C@H]1CC[C@]2(C)[C@H]3CC=C4[C@@H]5[C@@H](C)[C@H](C)CC[C@]5(C)CC[C@@]4(C)[C@]3(C)CC[C@H]2C1(C)C [Compound 13, α-amyrin stearate] | – | Inhibition % of PTP1B activity: < 50.0% |
| C=CCCCCC/C=C\C/C=C\C/C=C\CC [Compound 12, aplotaxene] | – | Inhibition % of PTP1B activity: < 50.0% |
| C=C1CC[C@H]2C(=C)CC[C@H]3C(=C)C(=O)O[C@@H]3[C@@H]12 [Compound 4, dehydrocostuslactone] | 86.2 | IC50 [1]: 28.3 µM and 28.2 µM |
| CC[C@H](CC[C@@H](C)[C@H]1CC[C@H]2[C@@H]3CC=C4C[C@@H](O)CC[C@]4(C)[C@H]3CC[C@]12C)C(C)C [Compound 11, β-sitosterol] | < 50 | – |
| C=C1C(=O)O[C@@H]2/C=C(\C)CC/C=C(\C)CC[C@@H]12 [Compound 5, costunolide] | < 50 | – |
| C=C(C)[C@@H]1CC[C@]2(C(=O)OC)CC[C@]3(C)[C@H](CC[C@@H]4[C@@]5(C)CC[C@H](O)C(C)(C)[C@@H]5CC[C@]43C)[C@@H]12 [Compound 2, betulinic acid methyl ester] | 89.4 | IC50 [1]: 1.98 µM and 1.91 µM |
| C=C1CC[C@@H](O)[C@]2(C)CC[C@H]3C(=C)C(=O)O[C@@H]3[C@@H]12 [Compound 7, reynosin] | < 50 | – |

Second part, led by results:

| inhibition at 30 µg/mL [%] | Structure (SMILES) | other results |
| --- | --- | --- |
| 95.1 | C=C(C)[C@@H]1CC[C@]2(C(=O)O)CC[C@]3(C)[C@H](CC[C@@H]4[C@@]5(C)CC[C@H](O)C(C)(C)[C@@H]5CC[C@]43C)[C@@H]12 [Compound 1, betulinic acid] | IC50 [1]: 1.53 µM |
| < 50 | C=C1C(=O)O[C@@H]2[C@@H]3[C@@](C)(CC[C@@H]12)[C@H](O)CC[C@@]3(C)O [Compound 8, 1β-hydroxy arbusculin A] | – |
| < 50 | C=C1C(=O)O[C@@H]2[C@H]3C(C)=CC[C@@H](O)[C@]3(C)CC[C@@H]12 [Compound 9, santamarine] | – |
| 99 | C[C@H]1[C@H](C)CC[C@]2(C(=O)O)CC[C@]3(C)C(=CC[C@@H]4[C@@]5(C)CC[C@H](O)C(C)(C)[C@@H]5CC[C@]43C)[C@H]12 [Ursolic acid, reference compound] | – |
